Each molecule was assayed against human PAD4 (hPAD4) (Homo sapiens (Human), UniProt Q9UM07) (assay: RFMS Human PAD4 Functional Assay 1). Conditions: RFMS assay 1; 5 nM hPAD4, 250 μM BAEE substrate, 50 μM calcium, 37° C.
Type: biochemical
In short: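 Citrullination product read by RapidFire triple-quad MRM against a modified-citrulline internal standard, after TCA stop and 30 min phenyl glyoxal step at 37 °C. Reaction: 250 μM BAEE, 5 nM human PAD4, 90 min at 37 °C, pH 7.5 HEPES buffer with 50 μM calcium and 5 μM TPEN, following 30 min compound–enzyme preincubation (max 50 μM).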

Sequence of human PAD4 (hPAD4) (Q9UM07 whole entry): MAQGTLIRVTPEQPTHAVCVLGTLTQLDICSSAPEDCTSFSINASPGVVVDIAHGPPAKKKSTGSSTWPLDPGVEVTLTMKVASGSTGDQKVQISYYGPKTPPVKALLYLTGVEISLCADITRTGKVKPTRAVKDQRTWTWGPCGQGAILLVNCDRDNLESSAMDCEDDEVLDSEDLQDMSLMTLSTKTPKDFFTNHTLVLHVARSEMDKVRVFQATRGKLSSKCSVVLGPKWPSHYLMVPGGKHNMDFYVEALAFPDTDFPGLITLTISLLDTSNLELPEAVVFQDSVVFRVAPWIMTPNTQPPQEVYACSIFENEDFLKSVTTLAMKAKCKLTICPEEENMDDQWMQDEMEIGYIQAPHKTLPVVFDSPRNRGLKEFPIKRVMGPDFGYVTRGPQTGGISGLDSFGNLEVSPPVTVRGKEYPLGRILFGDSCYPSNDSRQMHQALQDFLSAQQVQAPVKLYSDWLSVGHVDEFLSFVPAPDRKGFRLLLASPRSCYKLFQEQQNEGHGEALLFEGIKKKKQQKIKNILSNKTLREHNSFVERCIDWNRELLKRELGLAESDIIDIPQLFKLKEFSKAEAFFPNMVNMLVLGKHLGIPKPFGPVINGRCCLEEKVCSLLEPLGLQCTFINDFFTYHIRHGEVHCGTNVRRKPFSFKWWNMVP

Row | SMILES | IC50 [nM]
1 | Cc1c(O)cccc1-c1ccc2cc(-c3nn4cc(C(=O)N5CCC[C@@H](N)C5)cc(F)c4c3C)n(CC3CC3)c2n1 [Example 282, 3-(2-{6-[(3R)-3-Aminopiperidine-1-carbonyl]-4-fluoro-3-methylpyrazolo[1,5-a]pyridin-2-yl}-1-(cyclopropylmethyl)-1H-pyrrolo[2,3-b]pyridin-6-yl)-2-methylphenol] | 170
2 | Cc1c(-c2cc3ccc(-c4cccc(O)c4F)nc3n2CC2CC2)nn2cc(C(=O)N3CCC[C@@H](N)C3)cc(F)c12 [Example 283, 3-(2-{6-[(3R)-3-Aminopiperidine-1-carbonyl]-4-fluoro-3-methylpyrazolo[1,5-a]pyridin-2-yl}-1-(cyclopropylmethyl)-1H-pyrrolo[2,3-b]pyridin-6-yl)-2-fluorophenol] | 330
3 | Cc1c(-c2cc3ccc(-c4ccc5c(c4)CNC5=O)nc3n2CC2CC2)nn2cc(C(=O)N3CCC[C@@H](N)C3)cc(F)c12 [Example 284, 5-(2-{6-[(3R)-3-Aminopiperidine-1-carbonyl]-4-fluoro-3-methylpyrazolo[1,5-a]pyridin-2-yl}-1-(cyclopropylmethyl)-1H-pyrrolo[2,3-b]pyridin-6-yl)-2,3-dihydro-1H-isoindol-1-one] | 1860
4 | Cc1c(-c2cc3ccc(-c4ccc5c(c4)C(=O)NC5)nc3n2CC2CC2)nn2cc(C(=O)N3CCC[C@@H](N)C3)cc(F)c12 [Example 285, 6-(2-{6-[(3R)-3-Aminopiperidine-1-carbonyl]-4-fluoro-3-methylpyrazolo[1,5-a]pyridin-2-yl}-1-(cyclopropylmethyl)-1H-pyrrolo[2,3-b]pyridin-6-yl)-2,3-dihydro-1H-isoindol-1-one] | 1270
5 | Cc1cc(-c2ccc3cc(-c4nn5cc(C(=O)N6CCC[C@@H](N)C6)cc(F)c5c4C)n(CC4CC4)c3n2)ccc1C(N)=O [Example 286, 4-(2-{6-[(3R)-3-Aminopiperidine-1-carbonyl]-4-fluoro-3-methylpyrazolo[1,5-a]pyridin-2-yl}-1-(cyclopropylmethyl)-1H-pyrrolo[2,3-b]pyridin-6-yl)-2-methylbenzamide] | 540
6 | CNC(=O)c1ccc(-c2ccc3cc(-c4nn5cc(C(=O)N6CCC[C@@H](N)C6)cc(F)c5c4C)n(CC4CC4)c3n2)cn1 [Example 287, 5-(2-{6-[(3R)-3-Aminopiperidine-1-carbonyl]-4-fluoro-3-methylpyrazolo[1,5-a]pyridin-2-yl}-1-(cyclopropylmethyl)-1H-pyrrolo[2,3-b]pyridin-6-yl)-N-methylpyridine-2-carboxamide] | 1280
7 | Cc1c(-c2cc3ccc(-c4ccn5c(C)nnc5c4)nc3n2CC2CC2)nn2cc(C(=O)N3CCC[C@@H](N)C3)cc(F)c12 [Example 288, (3R)-1-{2-[1-(Cyclopropylmethyl)-6-{3-methyl-[1,2,4]triazolo[4,3-a]pyridin-7-yl}-1H-pyrrolo[2,3-b]pyridin-2-yl]-4-fluoro-3-methylpyrazolo[1,5-a]pyridine-6-carbonyl}piperidin-3-amine] | 80
8 | Cc1c(-c2cc3ccc(Cl)nc3n2CC2CC2)nn2cc(C(=O)N3C[C@H](N)C[C@@H](F)C3)cc(Cl)c12 [Example 289, (3R,5R)-1-{4-Chloro-2-[6-chloro-1-(cyclopropylmethyl)-1H-pyrrolo[2,3-b]pyridin-2-yl]-3-methylpyrazolo[1,5-a]pyridine-6-carbonyl}-5-fluoropiperidin-3-amine] | 3580
9 | Cc1c(-c2cc3ccc(-c4ccc5[nH]ncc5c4)nc3n2CC2CC2)nn2cc(C(=O)N3C[C@H](N)C[C@@H](F)C3)cc(Cl)c12 [Example 290, (3R,5R)-1-{4-Chloro-2-[1-(cyclopropylmethyl)-6-(1H-indazol-5-yl)-1H-pyrrolo[2,3-b]pyridin-2-yl]-3-methylpyrazolo[1,5-a]pyridine-6-carbonyl}-5-fluoropiperidin-3-amine] | 2720
10 | Cc1c(-c2cc3ccc(Cl)nc3n2CC2CC2)nn2cc(C(=O)N3CCC[C@@H](N)C3)cc(Cl)c12 [Example 291, (3R)-1-{4-Chloro-2-[6-chloro-1-(cyclopropylmethyl)-1H-pyrrolo[2,3-b]pyridin-2-yl]-3-methylpyrazolo[1,5-a]pyridine-6-carbonyl}piperidin-3-amine] | 5890
11 | Cc1c(-c2cc3ccc(-c4ccc5[nH]ncc5c4)nc3n2CC2CC2)nn2cc(C(=O)N3CCC[C@@H](N)C3)cc(Cl)c12 [Example 292, (3R)-1-{4-chloro-2-[1-(Cyclopropylmethyl)-6-(1H-indazol-5-yl)-1H-pyrrolo[2,3-b]pyridin-2-yl]-3-methylpyrazolo[1,5-a]pyridine-6-carbonyl}piperidin-3-amine] | 2350
12 | Cc1c(-c2cc3ccc(-c4ccc(C(N)=O)cc4Cl)cc3n2CC2CC2)nn2cc(C(=O)N3CC4CCC3[C@@H]4N)cc(F)c12 (stereo partly drawn) [Example 294, 4-(2-{6-[(7R)-7-Amino-2-azabicyclo[2.2.1]heptane-2-carbonyl]-4-fluoro-3-methylpyrazolo[1,5-a]pyridin-2-yl}-1-(cyclopropylmethyl)-1H-indol-6-yl)-3-chlorobenzamide] | 200
13 | Cc1c(-c2cc3ccc(-c4ccn5c(C)nnc5c4)cc3n2CC2CC2)nn2cc(C(=O)N3CC4CCC3[C@@H]4N)cc(F)c12 (stereo partly drawn) [Example 295, (7R)-2-{2-[1-(Cyclopropylmethyl)-6-{3-methyl-[1,2,4]triazolo[4,3-a]pyridin-7-yl}-1H-indol-2-yl]-4-fluoro-3-methylpyrazolo[1,5-a]pyridine-6-carbonyl}-2-azabicyclo[2.2.1]heptan-7-amine] | 20
14 | COC1CN(c2ccc3cc(-c4nn5cc(C(=O)N6CC7CCC6[C@@H]7N)cc(F)c5c4C)n(CC4CC4)c3c2)C1 (stereo partly drawn) [Example 296, (7R)-2-{2-[1-(Cyclopropylmethyl)-6-(3-methoxyazetidin-1-yl)-1H-indol-2-yl]-4-fluoro-3-methylpyrazolo[1,5-a]pyridine-6-carbonyl}-2-azabicyclo[2.2.1]heptan-7-amine] | 850
15 | Cc1c(-c2cc3ccc(-c4cccc5[nH]nc(F)c45)nc3n2CC2CC2)nn2cc(C(=O)N3CC4CCC3[C@@H]4N)ccc12 (stereo partly drawn) [Example 297, (7R)-2-{2-[1-(Cyclopropylmethyl)-6-(3-fluoro-1H-indazol-4-yl)-1H-pyrrolo[2,3-b]pyridin-2-yl]-3-methylpyrazolo[1,5-a]pyridine-6-carbonyl}-2-azabicyclo[2.2.1]heptan-7-amine] | 190
16 | Cc1c(-c2cc3ccc(-c4ccc5cn[nH]c5c4)nc3n2CC2CC2)nn2cc(C(=O)N3CC4CCC3[C@@H]4N)ccc12 (stereo partly drawn) [Example 298, (7R)-2-{2-[1-(Cyclopropylmethyl)-6-(1H-indazol-6-yl)-1H-pyrrolo[2,3-b]pyridin-2-yl]-3-methylpyrazolo[1,5-a]pyridine-6-carbonyl}-2-azabicyclo[2.2.1]heptan-7-amine] | 210
17 | Cc1c(-c2cc3ccc(-c4cccc5[nH]ncc45)nc3n2CC2CC2)nn2cc(C(=O)N3CC4CCC3[C@@H]4N)ccc12 (stereo partly drawn) [Example 299, (7R)-2-{2-[1-(Cyclopropylmethyl)-6-(1H-indazol-4-yl)-1H-pyrrolo[2,3-b]pyridin-2-yl]-3-methylpyrazolo[1,5-a]pyridine-6-carbonyl}-2-azabicyclo[2.2.1]heptan-7-amine] | 20

From patent US12473304B2, “Heterocyclic PAD4 inhibitors” (BRISTOL-MYERS SQUIBB COMPANY, priority 2020, dated 2025)
